For this test, the system named is neonatal rat ventricular myocytes (NRVMs). As to the kind of experiment: Myocyte proliferation assay (EdU) in neonatal rat ventricular myocytes. The class given is cell-based. The following applies: Rattus norvegicus, Ventricular myocyte, growth relative to blank myocyte growth without compound added; for activation at 1 µM: 1 uM compound; for activation at 3 µM: 3 uM compound; for activation at 10 µM: 10 uM compound. How it is done:
1. Isolation of and Culture Neonatal Rat Ventricular Myocytes (NRVMs)
Ventricles from neonatal rats were separated from the atria, cut into small pieces (about 2×2 mm^2) and then dissociated in Ca^2+-free HBSS containing 0.125 mg ml-1 trypsin (Gibco), 10 μg ml-1 DNase II (Sigma) and 0.1 mg ml-1 collagenase type IV (Sigma). The digestion was carried out under constant stirring at 37° C. for 5 min. The supernatant was collected with FBS (Gibco) after each digestion period. After digestion, the collected supernatant was centrifuged at 1000 g for 10 min at room temperature, and then cell pellets were resuspended in DMEM (Gibco) supplemented with 10% FBS and with 100 uM 5-bromo-2′-deoxyuridine (Sigma). The resuspended cells were passed through a cell strainer ([…], BD Falcon) and seeded onto 100-mm plastic dishes for 2 h at 37° C. in a 5% CO2 to remove fibroblasts, the supernatant was then collected and plated onto 1% gelatin (Sigma)-coated dishes. 24 h after the seeding, the medium was changed to DMEM (Gibco) containing 2% FBS (Gibco), 1% insulin-transferrin-selenium (ITS; Gibco), 1% Penicillin-Streptomycin (Gibco). After 24 hours of low serum culture, remove the medium with DMEM (Gibco) containing 6% FBS (Gibco), 1% insulin-transferrin-selenium (ITS; Gibco), 1% Penicillin-Streptomycin (Gibco), different concentrations of compounds (the compounds were pre-diluted in the medium and the drug concentration was 10 uM, 3 uM, 1 uM, fully mixed). After 36 h add Edu substrate (Invitrogen) according to the manufacturer's guidelines, and then after 12 h cell can be used.
2.1. Immobilization: Remove the medium and fix the cells with […] in 200 ul (whichever is covered) for 15 min and wash the cells twice with 500 ul of PBS for 5 min each time.
2.2. Broken membrane: Add 200 ul of 0.3% Triton-X 100 (diluted in PBS) to each well, incubate for 10-15 min at room temperature (the time should not be too long), and wash the cells twice with 500 ul of PBS for 5 min each time.
2.3. Blocking: Add 200 ul of 10% normal goat serum (diluted with 0.1% PBST) to each well, incubate for 1 h at room temperature, and wash twice with 500 ul of 0.1% PBST for 5 min each time.
2.4. Primary antibody: dilute the primary antibody (abcam, ab8295) to blocking solution at a ratio of 1:200, add 100 ul per well, incubate for 1 h at room temperature (may be slightly longer than 2-3 h), wash the cells twice with 500 ul 0.1% PBST for 5 min each time.
2.5. Secondary antibody: Dilute the fluorescently labeled secondary antibody (abcam, ab150117) into blocking solution at a ratio of 1:200, add 100 ul per well, incubate for 1 h at room temperature (the time should not be too long), wash the cells twice with 0.1% PBST for 5 min each time, pay attention to the whole process. Protected from light.
2.6. Edu staining (Invitrogen C10338)
2.6.1 Prepare Click-iT® reaction cocktail according to Table 3. It was important to add the ingredients in the order listed in the table; otherwise, the reaction would not proceed optimally. Use the Click-iT® reaction cocktail within 15 minutes of preparation.
2.6.2 Add 0.1 mL of Click-iT® reaction cocktail to each well containing a coverslip. Rock the plate briefly to ensure that the reaction cocktail is distributed evenly over the coverslip.
2.6.3 Incubate the plate for 30 minutes at room temperature, protected from light.
2.6.4 Remove the reaction cocktail, then wash the cells twice with 0.1% PBST for 5 min each time.
2.7. DAPI staining: DAPI stain was diluted to PBS at a ratio of 1:1000, 100 ul per well, incubated for 30 min at room temperature, and the cells were washed twice with PBS for 5 min each.
We used Molecular Devices' Image Xpress Micro Confocal for high-throughput photo and data analysis.

These results are taken from US12594261B2, “Use of heterocyclic derivatives with cardiomyocyte proliferation activity for treatment of heart diseases” (SHANGHAI EAST HOSPITAL (EAST HOSPITAL, TONGJI UNIVERSITY …, priority 2019, dated 2026).

On to `O=C1NC(Nc2ccc(Cl)cc2)=N/C1=C\c1ccc2c(c1)OCO2` [TJU-B060, (4Z)-4-[(2H-1,3-benzodioxol-5-yl)methylidene]-2-[(4-chlorophenyl)amino]-4,5-dihydro-1H-imidazol-5-one], for which the activation at 1 µM is under 10%, the activation at 3 µM was under 10% and the activation at 10 µM is under 10%.
For `COc1ccc(NC2=N/C(=C\c3ccc4c(c3)OCO4)C(=O)N2)cc1` [TJU-B009, (4Z)-4-[(2H-1,3-benzodioxol-5-yl)methylidene]-2-[(4-methoxyphenyl)amino]-4,5-dihydro-1H-imidazol-5-one], the activation at 1 µM lay within 10 to 50%, the activation at 3 µM is 10 to 50% and the activation at 10 µM was over 50%.
As to `O=C1NC(NCc2ccccc2)=N/C1=C\c1ccc2c(c1)OCO2` [TJU-B019, (4Z)-4-[(2H-1,3-benzodioxol-5-yl)methylidene]-2-(benzylamino)-4,5-dihydro-1H-imidazol-5-one], the activation at 1 µM was under 10%, the activation at 3 µM is under 10% and the activation at 10 µM was over 50%.
For the compound `CNC1=N/C(=C\c2ccc3c(c2)OCO3)C(=O)N1` [TJU-B033, (4Z)-4-[(2H-1,3-benzodioxol-5-yl)methylidene]-2-(methylamino)-4,5-dihydro-1H-imidazol-5-one], the activation at 1 µM is under 10%, the activation at 3 µM was under 10% and the activation at 10 µM lay in the range of 10 to 50%.
The compound `CN1C(=O)/C(=C/c2ccccc2F)N=C1N` [TJU-B067, (4Z)-2-amino-4-[(2-fluorophenyl)methylidene]-1-methyl-4,5-dihydro-1H-imidazol-5-one] showed an activation at 1 µM of under 10%, an activation at 3 µM of under 10% and an activation at 10 µM of under 10%.
For the compound `O=C1NC(Nc2cccnc2)=N/C1=C\c1ccc2c(c1)OCO2` [TJU-B031, (4Z)-4-[(2H-1,3-benzodioxol-5-yl)methylidene]-2-[(pyridin-3-yl)amino]-4,5-dihydro-1H-imidazol-5-one], the activation at 1 µM is under 10%, the activation at 3 µM was under 10% and the activation at 10 µM lay within 10 to 50%.
In turn, `NC1=N/C(=C\c2ccc3c(c2)OCO3)C(=O)N1` [TJU-B034, (4Z)-2-amino-4-[(2H-1,3-benzodioxol-5-yl)methylidene]-4,5-dihydro-1H-imidazol-5-one] showed an activation at 1 µM of under 10%, an activation at 3 µM of under 10% and an activation at 10 µM of 10 to 50%.
For the compound `O=C1NC(NCCN2CCOCC2)=N/C1=C\c1ccc2c(c1)OCCO2` [TJU-B026, (4Z)-4-[(2,3-dihydro-1,4-benzodioxin-6-yl)methylidene]-2-{[2-(morpholin-4-yl)ethyl]amino}-4,5-dihydro-1H-imidazol-5-one], the activation at 1 µM lay within 10 to 50%, the activation at 3 µM was under 10% and the activation at 10 µM is over 50%.
In the case of `CN1C(=O)/C(=C/c2ccc3c(c2)OCO3)N=C1Nc1ccccc1` [TJU-B014, (4Z)-4-[(2H-1,3-benzodioxol-5-yl)methylidene]-1-methyl-2-(phenylamino)-4,5-dihydro-1H-imidazol-5-one], the activation at 1 µM is under 10%, the activation at 3 µM is 10 to 50% and the activation at 10 µM is over 50%.
The corresponding values for `O=C1NC(Nc2ccccc2)=N/C1=C\c1ccc2c(c1)OCCO2` [TJU-B007, (4Z)-4-[(2,3-dihydro-1,4-benzodioxin-6-yl)methylidene]-2-(phenylamino)-4,5-dihydro-1H-imidazol-5-one] are under 10%, 10 to 50% and over 50%.
Taken in the same sequence, the figures for `C/C(=C1/N=C(Nc2ccccc2)NC1=O)c1ccc2c(c1)OCO2` [TJU-B013, (4Z)-4-[1-(2H-1,3-benzodioxol-5-yl)ethylidene]-2-(phenylamino)-4,5-dihydro-1H-imidazol-5-one] were under 10%, 10 to 50% and over 50%.
The corresponding values for `COc1ccc(NC2=N/C(=C\c3ccc4c(c3)OCCO4)C(=O)N2)cc1` [TJU-B006, (4Z)-4-[(2,3-dihydro-1,4-benzodioxin-6-yl)methylidene]-2-[(4-methoxyphenyl)amino]-4,5-dihydro-1H-imidazol-5-one] are 10 to 50%, 10 to 50% and over 50%.
`O=C1NC(C2CC2)=N/C1=C\c1ccc2c(c1)OCO2` [TJU-B059, (4Z)-4-[(2H-1,3-benzodioxol-5-yl)methylidene]-2-cyclopropyl-4,5-dihydro-1H-imidazol-5-one] came in with an activation at 1 µM of under 10%, an activation at 3 µM of under 10% and an activation at 10 µM of under 10%.
`NC1=N/C(=C\c2cc3c(cc2Cl)OCO3)C(=O)N1` [TJU-B064, (4Z)-2-amino-4-[(6-chloro-2H-1,3-benzodioxol-5-yl)methylidene]-4,5-dihydro-1H-imidazol-5-one] had an activation at 1 µM of under 10%, an activation at 3 µM of under 10% and an activation at 10 µM of under 10%.
In turn, `O=C1NC(c2ccccc2)=N/C1=C\c1ccc2c(c1)OCO2` [TJU-B039, (4Z)-4-[(2H-1,3-benzodioxol-5-yl)methylidene]-2-phenyl-4,5-dihydro-1H-imidazol-5-one] had an activation at 1 µM of under 10% and an activation at 10 µM of 10 to 50%.
Regarding `O=C1NC(NCCN2CCOCC2)=N/C1=C\c1ccc2c(c1)OCO2` [TJU-B004, (4Z)-4-[(2H-1,3-benzodioxol-5-yl)methylidene]-2-{[2-(morpholin-4-yl)ethyl]amino}-4,5-dihydro-1H-imidazol-5-one], the activation at 1 µM is under 10%, the activation at 3 µM was in the range of 10 to 50% and the activation at 10 µM was over 50%.
The corresponding values for `COc1cccc(/C=C2\N=C(N)N(C)C2=O)c1` [TJU-B036, (4Z)-2-amino-4-[(3-methoxyphenyl)methylidene]-1-methyl-4,5-dihydro-1H-imidazol-5-one] are 10 to 50%, under 10% and 10 to 50%.
The corresponding values for `COc1ccc(/C=C2\N=C(N)N(C)C2=O)cc1OC` [TJU-B070, (4Z)-2-amino-4-[(3,4-dimethoxyphenyl)methylidene]-1-methyl-4,5-dihydro-1H-imidazol-5-one] are under 10%, under 10% and under 10%.
With `Cc1ccc(NC2=N/C(=C\c3ccc4c(c3)OCO4)C(=O)N2)cc1` [TJU-B110, (4Z)-4-[(2H-1,3-benzodioxol-5-yl)methylidene]-2-[(4-methylphenyl)amino]-4,5-dihydro-1H-imidazol-5-one], the activation at 1 µM lay within 10 to 50%, the activation at 3 µM is under 10% and the activation at 10 µM was under 10%.
In turn, `CC(C)NC1=N/C(=C\c2ccc3c(c2)OCO3)C(=O)N1C` [TJU-B016, (4Z)-4-[(2H-1,3-benzodioxol-5-yl)methylidene]-1-methyl-2-[(propan-2-yl)amino]-4,5-dihydro-1H-imidazol-5-one] registered an activation at 1 µM of under 10%, an activation at 3 µM of 10 to 50% and an activation at 10 µM of over 50%.
As to `O=C1NC(Nc2ccccc2)=N/C1=C\c1ccc2c(c1)OCO2` [TJU-B043, (4Z)-4-[(2H-1,3-benzodioxol-5-yl)methylidene]-2-(phenylamino)-4,5-dihydro-1H-imidazol-5-one], the activation at 1 µM lay within 10 to 50%, the activation at 3 µM was 10 to 50% and the activation at 10 µM fell in the range of 10 to 50%.
